Measurements from patent US20250134860A1, “NOVEL COMPOUND, AND COMPOSITION FOR PREVENTING, ALLEVIATING OR TREATING BACTERIAL INFLAMMATION AND INFLAMMASOME-MEDIATED DISEASES, COMPRISING SAME AS ACTIVE INGREDIENT” (Quorum Bio Co., Ltd., priority 2022, published 2025).
“And” between values parts separate entries of the source, which are not always exact repeats. Identical values can stand only once.

Key:
P. gingivalis = assay: Inhibitory effect on P. gingivalis biofilm formation (crystal violet, OD590nm); format: cell-based, Porphyromonas gingivalis; details: 48 hours; for biofilm formation of P. gingivalis increased by DPD: DPD 10 μM + compound 0.002, 0.02, 0.2, 2 μM, anaerobic, OD590nm
[1] = system: Sprague-Dawley rat bone marrow cells; assay: Rat micronucleus test; details: positive control 20 mg/kg/day P.O., 24 hours after dosing
Procedure: Hair was removed from the administration site (subcutaneous) of the SD rats, the administration concentration of the example compounds were set to a low dose (500 mg/kg/day), a medium dose (1000 mg/kg/day), and a high dose (2000 mg/kg/day), and administered subcutaneously to the left and right […] of the test system (10 ml/kg/day each), and the compound was administered subcutaneously in divided doses to the left and right […] of the test system (10 ml/kg/day each).
24 hours after the second administration of the test substance, the femur was removed from each group to collect bone marrow cells. 0.5 mL of 10% neutral formalin was added to the bone marrow cell suspension, fixed for 5 minutes, centrifuged for 5 minutes (4° C., 1,000 rpm, Micro17TR, Hanil Science Industrial, Republic of Korea) to remove the supernatant. Then, 0.3 mL of 10% neutral formalin was added to the precipitated bone marrow cells, suspended, filtered through a cell strain, and transferred to a storage tube. The fixed bone marrow cell suspension was dropped onto a cover glass, and then covered with a slide glass coated with 20 μL of 0.05% acridine orange to prepare an observation slide. The observation slide was observed under a microscope (600× magnification, BX51, Olympus, Japan).
As an indicator of bone marrow cell proliferation inhibition, 500 total red blood cells per individual were observed, and the ratio of polychromatic red blood cells to total red blood cells (PCE/(PCE+NCE)) was calculated. As a positive control, cyclophosphamide (Cas No: 50-18-0) was administered at a dose of 20 mg/kg/day.

[2] = General symptoms and body weight in the rat micronucleus study; format: in vivo; details: positive control 20 mg/kg/day P.O.
Procedure: In addition, body weight was measured on the day of administration start and bone marrow collection to confirm presence/absence of changes due to administration of the substance, and the results are shown in Table 4 below.

[3] = Plasma stability in human plasma (LC-MS/MS); format: in vitro ADME; details: 37° C., 0, 30, 60, 120, 240 minutes
Procedure: (§1) The compounds of Examples 1-2 and Comparative Example, and the substance used as the positive control (Eucatropine, Loterpresnol) were dissolved in DMSO to prepare a stock solution having a concentration of 10 mM. The stock solution of each test substance was then diluted to prepare 0.2 mM and 1 mM working solutions and used for the test (For the comparative example compound, 70% acetonitrile was used as a solvent, and for the compound of Example 1-2, 50% acetonitrile was used as a solvent).
(§2) The positive control and the standard solution of the test substance were placed in tubes containing two types of plasma (human and rat) at concentrations of 1 μM and 5 μM, respectively, and then incubated at 37° C. for a prescribed time (0, 30, 60, 120, 240 minutes) while shaking and mixing. At each time point, the mixture sample was dispensed in 100 μl increments into a cell culture plate (96-well plate) containing 400 μl of quench reagent to terminate the test, After centrifugation (5000×g, 10 min), 100 μl of the supernatant was taken out, mixed with 200 μl of ultrapure water, and the solution was then injected into a LC-MS/MS system to analyze the drug in each time zone. Thereby, the plasma stability of the compounds of Comparative Example and Example 1-2 was evaluated.

[4] = Plasma stability in rat plasma (LC-MS/MS); format: in vitro ADME; details: 37° C., 0, 30, 60, 120, 240 minutes
Procedure: as §1, §2

[5] = system: gingipain genes (rgpA, rgpB, kgp); assay: Inhibitory effect on gingipain expression of P. gingivalis (RT-qPCR); format: cell-based, Porphyromonas gingivalis; details: 48 hours
Procedure: The compounds of Examples were respectively treated onto the medium cultured with P. gingivalis, and the expression levels of three gingipain proteins (lysine-gingipain (Kgp), arginine-gingipain A (RgpA), and arginine-gingipain B (RgpB)) produced by P. gingivalis, which are major virulence factors and proteolytic enzymes, were confirmed.
The culture medium containing 10 μM of DPD (4,5-dihydroxy-2,3-pentane dione), which is a precursor of the bacterial signal substance (Autoinducer-2), and the culture medium containing 2 μM of the example compound or not were respectively dispensed into a cell culture plate (48 well plate), and then P. gingivalis (2×10^8 cell/ml) were inoculated for each group. The culture medium cultured with bacteria was cultured at 37° C. under anaerobic conditions (10% H2, 10% CO2, and 80% N2) for 48 hours.
After 48 hours, each culture medium was centrifuged at 13,000 rpm for 1 minute to remove the supernatant, and total RNA was extracted using easy-BLUE™ Total RNA Extraction kit (iNtRON Biotechnology, Sungnam, Korea) to synthesize cDNA, and then the expression of the gingipain gene was confirmed by real-time PCR method. cDNA was synthesized using AccuPower® CycleScript RT PreMix dN6 (Bioneer, Daejeon, Korea), and real-time (quantitative) reverse transcription PCR (RT-qPCR) was carried out using Power SYBR™ Green PCR Master Mix (Applied Biosystems, Foster City, CA, USA).
RT-qPCR amplification conditions were as follows: after enzyme activation at 95° C. for 3 minutes, denaturation at 95° C. for 10 seconds and primer annealing at 60° C. for 30 seconds were repeated 40 times, and analysis was performed using a Bio-Rad CFX Connect Real-Time PCR Detection System (Bio-Rad, Hercules, CA, USA). To normalize the expression level of the gingipain gene, the 16s rRNA gene was used, and the gene expression level was calculated using the Comparative Ct Method (ΔΔCt), which is shown in FIGS. 5a to 5c.

For `COc1ccc(C(=C2c3ccccc3C(=O)N2C)c2ccc(OC)cc2)cc1` [Example 1-3, 3-(bis(4-methoxyphenyl)methylene)-2-methylisoindolin-1-one], the “biofilm formation of P. gingivalis increased by DPD” value (P. gingivalis) was “inhibited in a concentration-dependent manner”.

In the case of `O=P1(N(CCCl)CCCl)NCCCO1` (stereo not shown) [CPA, cyclophosphamide], the “MNPCE/PCE, %(Mean)” value ([1]; group mean) is reported as 3.060%, the “PCE/(PCE+NCE), %(Mean)” value ([1]; group mean) is reported as 33.5% and the “PCE/(PCE+NCE): PCE count” value ([1]; individual animals, per 500 total red blood cells) is reported as 166 and 170. For the same compound, the “MNPCE/PCE: MNPCE count” value ([1]; individual animals, per 4,000 PCE) was 150 and 154 and 167 (2×), the “Body weight (g) 1 day after 2nd dosing, Mean” value ([2]; administered once, group mean) was 278.9 g and the “Body weight (g) 1 day after 2nd dosing” value ([2]; administered once, individual animals 1501-1505) was 279.4 g and 281.5 g. The “Body weight (g) before 1st dosing, Mean” value ([2]; group mean) was 266.8 g and the “Body weight (g) before 1st dosing” value ([2]; individual animals 1501-1505) was 282.2 g.

With `O=C1O/C(=C(\Br)c2ccccc2)c2ccccc21` [Comparative Example, (Z)-3-(bromo (phenyl)methylene) isobenzofuran-1 (3H)-one, reference compound] the “biofilm formation of P. gingivalis increased by DPD” value (P. gingivalis) was “inhibited in a concentration-dependent manner”, the “amount of the compound remaining in the plasma” value [3] was “decreased over time” and the “amount of the compound remaining in the plasma” value [4] was “decreased over time”.

In the case of `CC(=O)C(=O)C(O)CO` (stereo not shown) [DPD, 4,5-dihydroxy-2,3-pentanedione, reference compound], the “biofilm formation of P. gingivalis” value (P. gingivalis; DPD 10 μM alone compared to medium with PBS (CT)) is reported as “significantly increased” and the “expression levels of three gingipain genes (rgpA, rgpB, kgp)” value ([5]; DPD 10 μM alone compared with untreated control) is reported as “increased more than in the control group”.

With `CN1C(=O)c2ccccc2C1=C(c1ccccc1)c1ccccc1` [Example 1-1, 3-(diphenylmethylene)-2-methylisoindolin-1-one] the “biofilm formation of P. gingivalis increased by DPD” value (P. gingivalis) was “inhibited in a concentration-dependent manner” and the “expression levels of three gingipain genes (rgpA, rgpB, kgp) increased by DPD” value ([5]; DPD 10 μM + compound 2 μM, normalized to 16s rRNA) was “reduced”.
